Among the data in PubChem BioAssay AID434951 (Broad Institute, 2010) are EC50 values, retold here.

The source made the active and inactive calls.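 How the source made its calls: active means a fitted half-maximal concentration EC50 for the rise in nuclear signal no higher than ten times the top dose tested; inconclusive means flat fit with activity between 30% and 70%, or unusable fit; inactive means EC50 beyond ten times the top dose.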

Hypoxia-inducible factor 1-alpha (Homo sapiens), sequence (Q16665 whole entry, looked up): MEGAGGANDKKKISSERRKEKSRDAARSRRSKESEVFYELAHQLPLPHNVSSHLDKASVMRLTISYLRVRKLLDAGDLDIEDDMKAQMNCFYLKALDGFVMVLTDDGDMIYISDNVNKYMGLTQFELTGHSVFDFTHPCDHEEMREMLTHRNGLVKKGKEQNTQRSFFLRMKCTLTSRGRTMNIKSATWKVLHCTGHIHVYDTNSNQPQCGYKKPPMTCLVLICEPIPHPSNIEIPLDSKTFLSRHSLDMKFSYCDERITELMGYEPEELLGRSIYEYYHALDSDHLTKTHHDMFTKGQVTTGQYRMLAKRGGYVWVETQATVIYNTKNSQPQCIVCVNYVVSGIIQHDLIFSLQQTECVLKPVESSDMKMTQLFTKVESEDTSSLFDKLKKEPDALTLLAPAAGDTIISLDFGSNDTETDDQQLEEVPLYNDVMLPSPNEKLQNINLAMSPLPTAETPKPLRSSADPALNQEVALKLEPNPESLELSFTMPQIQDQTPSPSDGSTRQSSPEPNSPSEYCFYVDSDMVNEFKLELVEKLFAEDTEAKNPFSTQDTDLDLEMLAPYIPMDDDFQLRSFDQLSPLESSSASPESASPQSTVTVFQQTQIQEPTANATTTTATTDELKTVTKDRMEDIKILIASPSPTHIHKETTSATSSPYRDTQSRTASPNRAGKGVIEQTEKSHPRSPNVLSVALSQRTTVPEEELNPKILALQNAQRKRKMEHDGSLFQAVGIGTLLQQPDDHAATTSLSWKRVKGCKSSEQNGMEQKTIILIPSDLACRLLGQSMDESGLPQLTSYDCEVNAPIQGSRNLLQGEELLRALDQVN

The experiment has as its target Hypoxia-inducible factor 1-alpha (Homo sapiens) (UniProt Q16665). As to the kind of experiment: HIF pathway activation, GFP-HIF1alpha translocation – imaging, fluorescence, U2OS GFP-HIF1alpha, confirmation (AID 434951). To be noted: U2OS GFP-HIF1alpha nuclear intensity, high-content imaging.
In general, EC50 refers to the concentration at which the effect is half-maximal. As for `CC(C)Cn1c(/C=N/Nc2nc3ccccc3[nH]2)nc2ccccc21`, the EC50 was 9.05 µM. Turning to `O=C(N/N=C/c1cc(Br)cc(Br)c1O)c1ccncc1`, the EC50 was > 35 µM (inactive). Regarding `COc1ccc(N=C2C(=O)N3CCCc4cccc2c43)cc1`, the EC50 was > 35 µM (inactive). For the molecule `O=C(NCCc1ccccc1)c1cc2sccc2n1Cc1ccccc1`, the EC50 was > 35 µM (inactive). Regarding `CCCC(=O)NC(c1ccccc1OC)c1ccc2cccnc2c1O` (stereo unspecified), the EC50 is 5.97 µM. Then `Oc1ccc(CN2CCc3ccccc3C2)c2cccnc12`, with 2.4 µM; and `COc1ccc(N2CCN(C(=O)COc3ccc4c(C)c(C)c(=O)oc4c3C)CC2)cc1`, with > 35 µM (inactive). Then `FC(F)Oc1ccc(NC(=S)Nc2ccc3cn[nH]c3c2)cc1`, with > 35 µM (inactive); and `CC1CCN(C(=O)CS(=O)(=O)Cc2ccccc2)CC1`, with > 35 µM (inactive); and `N#C/C(=C(/O)c1ccc(F)cc1)c1nc2ccccc2s1`, with > 35 µM (inactive).

In the case of `C=C(C)Cn1c(CCNC(=O)C(C)C)nc2ccccc21`, the EC50 is > 35 µM (inactive).

In the case of `COc1cccc(/C=N/Nc2nc3ccccc3[nH]2)c1O`, the EC50 is 13.1 µM. Then `O=C(COc1ccccc1)N(Cc1cccc(F)c1)C1CCS(=O)(=O)C1` (stereo unspecified), with > 35 µM (inactive); and `Cn1c(SCC(=O)c2ccccc2)nnc1-c1ccco1`, with > 35 µM (inactive). As to `O=C(N/N=C(\c1ccccc1)c1cccnc1)c1cccc(F)c1`, the EC50 was 2.62 µM.

`O=C(CNC(=O)C(c1ccccc1)c1ccccc1)N/N=C/c1ccc(O)cc1O`: the EC50 is > 35 µM (inactive). The value for `CCOC(=O)CNC(=O)CSc1nnc(Cn2cnc3ccccc32)n1C` was > 35 µM (inactive). On to `Cc1cccc(C)c1Nc1c(-c2ccccn2)nc2ccccn12`, for which the EC50 was 3.28 µM. Turning to `COC(=O)[C@H](CCSC)NC(=O)c1cccnc1SC`, the EC50 is > 35 µM (inactive). On to `COc1ccc(CNS(=O)(=O)c2cc3c4c(c2)C(C)C(=O)N4CCC3)cc1` (stereo unspecified), for which the EC50 is > 35 µM (inactive). For `CC(C(=O)N1CCOCC1)N1c2cccc3cccc(c23)S1(=O)=O` (stereo unspecified), the EC50 is > 35 µM (inactive). Then `Cc1ccc(Nc2c(-c3ccccn3)nc3cc(C)ccn23)cc1`, with 5.51 µM. Then `O=C(Nc1ccc(Cl)cc1)NN1CC(=O)N(c2cccc(C(F)(F)F)c2)CC1=O`, with > 35 µM (inactive); and `COc1ccc(C(=O)N/N=C(\c2ccccc2)c2ccccn2)cc1`, with 11.5 µM. With `Cc1ccc2c(c1)cc(C(=O)NCc1ccccc1)n2C`, the EC50 was > 35 µM (inactive). For the molecule `CC(OC(=O)COc1ccc(Nc2ccccc2)cc1)C(=O)N(C)c1ccccc1` (stereo unspecified), the EC50 was > 35 µM (inactive). Then `Cc1cc(OCC(=O)Nc2ccc3c(c2)OCCO3)cc(C)c1Cl`, with > 35 µM (inactive); and `Cc1cc(=O)[nH]c(SCC(=O)Nc2nonc2C)n1`, with > 35 µM (inactive); and `CN(Cc1ccccc1)C(=O)CC(=O)N(C)Cc1ccccc1`, with > 35 µM (inactive). The value for `Nc1nc(-c2ccccn2)nc(N)c1Cc1ccc(Cl)cc1Cl` was 6.12 µM; that for `Cc1ccc(C)c(OCC(=O)N2CCN(Cc3ccc4c(c3)OCO4)CC2)c1` was > 35 µM (inactive); that for `CCC(=O)N1CCN(c2nc3ccc(Br)cc3s2)CC1` was > 35 µM (inactive). Then `O=C1CCCC2=C1C(Cc1ccccc1)C1=C(CCCC1=O)O2`, with > 35 µM (inactive); and `Cc1ccccc1CN1C(=O)CSc2ccc(C(=O)N3CCOCC3)cc21`, with > 35 µM (inactive); and `Cc1cc(NC(=O)c2ccccc2)n(-c2nc3ccccc3[nH]2)n1`, with 27 µM. Take `CCCCNC(=S)Nc1ccc2cn[nH]c2c1`: the EC50 is > 35 µM (inactive). Then `CC(Oc1ccc2c3c(c(=O)oc2c1)CCCC3)C(=O)NCC(O)c1ccccc1` (stereo unspecified), with > 35 µM (inactive); and `CC(=O)N1c2ccc(S(=O)(=O)NCCc3ccccc3)cc2CC1C` (stereo unspecified), with > 35 µM (inactive). Then `O=C(CS(=O)(=O)c1ccccc1)Nc1ccc(N2CCOCC2)cc1`, with > 35 µM (inactive).

In the case of `Cc1nnc(N/N=C/c2ccccn2)[nH]c1=O`, the EC50 was 5.75 µM.

Regarding `CCN(CC)CCNCc1nc2ccccc2c(=O)n1-c1ccc(F)cc1`, the EC50 was > 35 µM (inactive).

Regarding `COc1cc(SC)ccc1C(=O)NCCc1ccccc1`, the EC50 is > 35 µM (inactive). The value for `Cc1cccc2sc(NNC(=O)c3ccc(S(=O)(=O)N4CCc5ccccc5C4)cc3)nc12` was 11.2 µM; that for `CN(CC1CCCO1)S(=O)(=O)c1ccc(C(=O)Nc2nccs2)cc1` (stereo unspecified) was > 35 µM (inactive); that for `Cc1cc(NC(c2cccnc2)c2ccc3cccnc3c2O)no1` (stereo unspecified) was 23.3 µM. On to `Cc1cc(C)n(-c2nc3ccccc3c(=O)n2OCC#N)n1`, for which the EC50 was 11.4 µM. Then `CCC(Sc1nc(C)cc(=O)[nH]1)C(=O)Nc1sc2c(c1C#N)CCCC2` (stereo unspecified), with > 35 µM (inactive). Then `COc1ccccc1-c1cc(C(F)(F)F)nc(S(=O)(=O)CCCC(=O)N2CCCCC2C)n1` (stereo unspecified), with > 35 µM (inactive). The value for `FC(F)(F)c1cnc(N2CCN(C(=S)NCc3ccccc3)CC2)c(Cl)c1` was > 35 µM (inactive). As for `CS(=O)(=O)c1cccc(C(=O)N(CCc2ccccc2)Cc2cccs2)c1`, the EC50 is > 35 µM (inactive). Then `O=C(O)c1ccc2cc(-c3ccccc3)[nH]c2c1`, with > 35 µM (inactive). As for `NC(=S)NNC(=O)c1cc(C(F)(F)F)cc(C(F)(F)F)c1`, the EC50 is > 35 µM (inactive).

Consider `Cc1occc1C(=O)N/N=C/c1c(O)ccc2ccccc12`, for which the EC50 is 11.7 µM. In the case of `Cc1noc(C)c1COC(=O)C1CC(O)CN1S(=O)(=O)c1ccc(Cl)cc1` (stereo unspecified), the EC50 is > 35 µM (inactive).

`Cn1cccc1C(=O)NC(=O)COC(=O)c1cc(S(=O)(=O)N2CCCCC2)ccc1Cl`: the EC50 was > 35 µM (inactive). The value for `CC(C)N(c1ccccc1)c1ncnc(NCCC(=O)O)c1[N+](=O)[O-]` was > 35 µM (inactive). The value for `Oc1cccc(C(Nc2nccs2)c2ccc3cccnc3c2O)c1` (stereo unspecified) was 6.93 µM.

Consider `C=CCn1c(N2CCCCCC2)nc2c1c(=O)[nH]c(=O)n2C`, for which the EC50 was > 35 µM (inactive). Take `O=C(NCc1nc2ccccc2[nH]1)c1c(F)c(F)c(F)c(F)c1F`: the EC50 was > 35 µM (inactive). The value for `O=C(CSc1nnc(-c2ccncc2)o1)N1CCCCCC1` was > 35 µM (inactive); that for `N/C(=N\OC(=O)c1cccs1)c1ccc(Cl)cc1` was > 35 µM (inactive); that for `COCc1nnc(NC(=O)c2cc(Cl)ccc2OC)s1` was > 35 µM (inactive).

Turning to `CCN(CC)c1ccc(NC(=O)CSc2nc3nc(C)cc(C)c3c(=O)[nH]2)cc1`, the EC50 was > 35 µM (inactive).

In the case of `O=C(CSc1nnc(-c2ccco2)n1Cc1ccco1)NCc1ccccc1`, the EC50 is > 35 µM (inactive). As for `Cc1c(Cl)c([N+](=O)[O-])nn1CC(=O)NC12CC3CC(CC(C3)C1)C2`, the EC50 was > 35 µM (inactive). The value for `O=C(CN1C(=O)COc2ccc(Cl)cc21)Nc1ccc2c(c1)OCCO2` was > 35 µM (inactive); that for `Cc1ccc(C(=O)NC2CC3CCCC(C2)N3Cc2ccccc2)cc1` (stereo unspecified) was > 35 µM (inactive). The value for `O=C(c1cc2ccccc2o1)N1CCN(Cc2ccc3c(c2)OCO3)CC1` was > 35 µM (inactive); that for `O=C(O)c1cccc(-n2cccc2/C=C2/SC(=O)N(CC(=O)N3CCCC3)C2=O)c1` was > 35 µM (inactive). The value for `Cc1cccc(OCCn2cccc2/C=C2/C(=O)NC(=O)N(Cc3ccco3)C2=O)c1` was > 35 µM (inactive); that for `CCCN(CCC)C(C)C(=O)NCC1(c2ccccc2)CCCC1` (stereo unspecified) was > 35 µM (inactive); that for `COc1cccc(C2C3=C(N=c4s/c(=C\c5ccccc5O)c(=O)n42)c2ccccc2CC3)c1OC` (stereo unspecified) was > 35 µM (inactive). Turning to `Oc1[nH]c2ccccc2c1N=NC(=S)N1CCOCC1`, the EC50 is 8 µM. With `CCOc1ccc(NC(=O)CC2C(=O)Nc3ccccc3N2C(=O)c2ccccc2)cc1` (stereo unspecified), the EC50 is > 35 µM (inactive). Turning to `CCOC(=O)N1CCC(Nc2c(-c3ccccc3)c(=O)c2=O)CC1`, the EC50 is > 35 µM (inactive). The value for `CC1CCN(Cc2c(C(=O)N/N=C/c3cc(Cl)ccc3O)nnn2-c2nonc2N)CC1` was 13.9 µM; that for `CCN(CC)c1ccc(/C=N/NC(=O)c2cccc(S(=O)(=O)N3CCOCC3)c2)c(O)c1` was 1.13 µM. For the molecule `Cc1ccc(-c2nnc(Sc3nc4ccccc4o3)c3ccccc23)cc1`, the EC50 was 16.9 µM.

As for `CC(=O)N(O)CCCCCNC(=O)CCC(=O)N(O)CCCCCNC(=O)CCC(=O)N(O)CCCCCN`, the EC50 is 5.56 µM. Turning to `O=C(N/N=C/c1cc([N+](=O)[O-])ccc1O)c1cccc2cc[nH]c12`, the EC50 is 20.8 µM. Take `COCc1c(C(=O)N/N=C(\C)c2ccc(Cl)s2)nnn1-c1nonc1N`: the EC50 is > 35 µM (inactive). Take `CS(=O)(=O)c1ccc2nc(NC(=O)C3CC3)sc2c1`: the EC50 is > 35 µM (inactive).

As for `COc1cccc(C(=O)N/N=C(/c2ccccc2)c2ccccn2)c1`, the EC50 is 6.04 µM. The value for `CN(c1cccc(Cl)c1)S(=O)(=O)c1cccc(C(=O)Nc2nc3ccccc3[nH]2)c1` was > 35 µM (inactive); that for `c1cnc(N2CCN(c3ccc4ccccc4n3)CC2)nc1` was > 35 µM (inactive); that for `Cc1ccc(-c2nnn(CC(=O)N(Cc3cccs3)C(C(=O)NC3CCCCC3)c3ccco3)n2)o1` (stereo unspecified) was 33.4 µM. Then `CC(=O)c1cccc(N(C(=O)c2ccccn2)C(C(=O)NC2CCCCC2)c2ccccc2)c1` (stereo unspecified), with > 35 µM (inactive).

With `O=c1oc2cc([N+](=O)[O-])ccc2nc1/C=C(\O)c1cccc(Br)c1`, the EC50 is > 35 µM (inactive). Then `CC(C)=NOC(=O)c1c(C)noc1-c1snnc1C`, with > 35 µM (inactive); and `O=C1CCCN2N=C(SCC(=O)Nc3ccc(Br)cc3)SC2=N1`, with 26.7 µM. Regarding `Oc1ccc2ccccc2c1/C=N/Nc1nnc(-c2ncc[nH]2)c2ccccc12`, the EC50 is 8.6 µM.
